Results taken from ChEMBL document CHEMBL3102801, “Synthesis and antiproliferative activity of new derivatives containing the polycyclic system 5,7:7,13-dimethanopyrazolo[3,4-b]pyrazolo[3',4':2,3]azepino[4,5-f]azocine” (Eur J Med Chem, 2014).
Active and inactive are the calls of the source. The rule behind the calls is not given here.

Experiments:
KM12 = assay: Growth inhibition of human KM12 cells after 48 hrs by sulforhodamine B assay; format: functional; settings: KM12, 48 h
HCT-15 = assay: Growth inhibition of human HCT15 cells after 48 hrs by sulforhodamine B assay; format: functional; settings: HCT-15, 48 h
HCT-116 [1] = assay: Growth inhibition of human HCT116 cells after 48 hrs by sulforhodamine B assay; format: functional; settings: HCT-116, 48 h
NCI-H522 = assay: Growth inhibition of human NCI-H522 cells after 48 hrs by sulforhodamine B assay; format: functional; settings: NCI-H522, 48 h
A549 = assay: Growth inhibition of human A549 cells after 48 hrs by sulforhodamine B assay; format: functional; settings: A549, 48 h
RPMI-8226 = assay: Growth inhibition of human RPMI8226 cells after 48 hrs by sulforhodamine B assay; format: functional; settings: RPMI-8226, 48 h
CCRF-CEM = assay: Growth inhibition of human CCRF-CEM cells after 48 hrs by sulforhodamine B assay; format: functional
[2] = molecular target: T1, Retinoblastoma-associated protein (Homo sapiens) (UniProt P06400); assay: Inhibition of pRb p110 phosphorylation in human MDA-MB-231 cells at 5 to 10 uM after 48 hrs by Western blotting relative to unphosphorylated p105; format: cell-based
T1 sequence (whole entry): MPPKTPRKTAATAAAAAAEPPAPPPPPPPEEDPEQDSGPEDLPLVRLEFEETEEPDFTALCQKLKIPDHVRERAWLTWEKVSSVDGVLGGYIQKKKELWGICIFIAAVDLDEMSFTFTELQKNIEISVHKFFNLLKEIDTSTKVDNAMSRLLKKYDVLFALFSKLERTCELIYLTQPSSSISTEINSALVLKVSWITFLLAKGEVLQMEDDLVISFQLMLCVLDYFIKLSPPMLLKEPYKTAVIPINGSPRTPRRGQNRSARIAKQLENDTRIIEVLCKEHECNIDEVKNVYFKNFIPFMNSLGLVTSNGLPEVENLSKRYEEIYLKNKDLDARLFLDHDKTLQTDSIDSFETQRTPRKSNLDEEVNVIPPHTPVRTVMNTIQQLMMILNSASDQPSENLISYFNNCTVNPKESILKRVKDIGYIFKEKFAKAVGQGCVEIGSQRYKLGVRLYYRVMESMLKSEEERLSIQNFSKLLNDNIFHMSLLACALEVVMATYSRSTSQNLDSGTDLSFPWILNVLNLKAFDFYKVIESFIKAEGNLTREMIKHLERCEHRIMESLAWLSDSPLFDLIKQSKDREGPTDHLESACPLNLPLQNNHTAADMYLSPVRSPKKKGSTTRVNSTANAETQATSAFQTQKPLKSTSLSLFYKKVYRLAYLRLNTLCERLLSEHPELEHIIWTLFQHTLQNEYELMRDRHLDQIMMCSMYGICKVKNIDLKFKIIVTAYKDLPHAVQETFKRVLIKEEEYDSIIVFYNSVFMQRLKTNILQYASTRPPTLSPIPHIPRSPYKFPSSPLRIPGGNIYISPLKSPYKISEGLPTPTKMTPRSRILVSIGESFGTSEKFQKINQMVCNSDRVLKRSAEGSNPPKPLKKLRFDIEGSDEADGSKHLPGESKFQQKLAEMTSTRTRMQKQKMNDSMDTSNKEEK

HCT-116 [3] = assay: Cell cycle arrest in human HCT116 cells assessed as accumulation of G2-M phase at 10 uM after 48 hrs using propidium iodide staining by flow cytometric analysis (reference value: 19.2%); format: functional
HCT-116 [4] = assay: Cell cycle arrest in human HCT116 cells assessed as accumulation of G0-G1 phase at 10 uM after 48 hrs using propidium iodide staining by flow cytometric analysis (reference value: 45.7%); format: functional
HCT-116 [5] = assay: Cell cycle arrest in human HCT116 cells assessed as accumulation of G0-G1 phase at 5 uM after 48 hrs using propidium iodide staining by flow cytometric analysis (reference value: 45.7%); format: functional
MDA-MB-231 [6] = assay: Cell cycle arrest in human MDA-MB-231 cells assessed as accumulation of G2-M phase at 10 uM after 48 hrs using propidium iodide staining by flow cytometric analysis (reference value: 27.5%); format: functional
MDA-MB-231 [7] = assay: Cell cycle arrest in human MDA-MB-231 cells assessed as accumulation of G0-G1 phase at 10 uM after 48 hrs using propidium iodide staining by flow cytometric analysis (reference value: 42.2%); format: functional
MDA-MB-231 [8] = assay: Cell cycle arrest in human MDA-MB-231 cells assessed as accumulation of sub-G0-G1 phase at 5 uM after 48 hrs using propidium iodide staining by flow cytometric analysis (reference value: 8.4%); format: functional
[9] = Therapeutic index, ratio of IC50 for human HeDe cells to IC50 for human HCT116 cells; format: cell-based, HCT-116; settings: HeDe cells versus HCT116 cells, read-out: TI
[10] = Therapeutic index, ratio of IC50 for human HeDe cells to IC50 for human MDA-MB-231 cells; format: cell-based; settings: HeDe cells versus MDA-MB-231 cells, read-out: TI
T47D = assay: Growth inhibition of human T47D cells after 48 hrs by sulforhodamine B assay; format: functional
BT-549 = assay: Growth inhibition of human BT549 cells after 48 hrs by sulforhodamine B assay; format: functional; settings: BT-549, 48 h
MDA-MB-231 [11] = assay: Growth inhibition of human MDA-MB-231 cells after 48 hrs by sulforhodamine B assay; format: functional; settings: MDA-MB-231, 48 h
PC-3 = assay: Growth inhibition of human PC3 cells after 48 hrs by sulforhodamine B assay; format: functional; settings: PC-3, 48 h
[12] = Growth inhibition of human UO31 cells after 48 hrs by sulforhodamine B assay; format: functional; settings: UO-31, 48 h
SN12C = assay: Growth inhibition of human SN12C cells after 48 hrs by sulforhodamine B assay; format: functional
CAKI-1 = assay: Growth inhibition of human CAKI-1 cells after 48 hrs by sulforhodamine B assay; format: functional; settings: CAKI-1, 48 h
A498 = assay: Growth inhibition of human A498 cells after 48 hrs by sulforhodamine B assay; format: functional; settings: A498, 48 h
786-0 = assay: Growth inhibition of human 786-0 cells after 48 hrs by sulforhodamine B assay; format: functional; settings: 786-0, 48 h
[13] = Growth inhibition of human OVCAR5 cells after 48 hrs by sulforhodamine B assay; format: functional; settings: OVCAR-5, 48 h
SK-MEL-28 = assay: Growth inhibition of human SK-MEL-28 cells after 48 hrs by sulforhodamine B assay; format: functional; settings: SK-MEL-28, 48 h
SK-MEL-2 = assay: Growth inhibition of human SK-MEL-2 cells after 48 hrs by sulforhodamine B assay; format: functional; settings: SK-MEL-2, 48 h
M14 = assay: Growth inhibition of human M14 cells after 48 hrs by sulforhodamine B assay; format: functional; settings: M14, 48 h
LOX IMVI = assay: Growth inhibition of human LOXIMVI cells after 48 hrs by sulforhodamine B assay; format: functional
U-251 = assay: Growth inhibition of human U251 cells after 48 hrs by sulforhodamine B assay; format: functional; settings: U-251, 48 h
[14] = Growth inhibition of human SF539 cells after 48 hrs by sulforhodamine B assay; format: functional; settings: SF-539, 48 h

## C=C1c2c(C)nn(-c3ccc(OC)cc3)c2N(C)C23CC1C1(C)c4c(C)nn(-c5ccc(OC)cc5)c4N(C)C(C)(CC12)C3 (configuration not stated)
KM12
  GI50: 3.75 µM
HCT-15
  GI50: 3.11 µM
HCT-116 [1]
  GI50: 2.82 µM
NCI-H522
  GI50: 2.77 µM
A549
  GI50: 2.69 µM
RPMI-8226
  GI50: 1.87 µM
CCRF-CEM
  GI50: 3.41 µM
[2]
  inhibition: Active
HCT-116 [3]
  Activity: 10.3%
HCT-116 [4]
  Activity: 63.8%
HCT-116 [5]
  Activity: 59%
MDA-MB-231 [6]
  Activity: 17.8%
MDA-MB-231 [7]
  Activity: 58.2%
MDA-MB-231 [8]
  Activity: 11.5%
[9]
  selectivity ratio: 26.9
[10]
  selectivity ratio: 24.4
T47D
  GI50: 1.81 µM
BT-549
  GI50: 3.1 µM
MDA-MB-231 [11]
  GI50: 3.11 µM
PC-3
  GI50: 1.75 µM
[12]
  GI50: 2.61 µM
SN12C
  GI50: 3.65 µM
CAKI-1
  GI50: 2.67 µM
A498
  GI50: 2.47 µM
786-0
  GI50: 4.23 µM
[13]
  GI50: 11.3 µM
SK-MEL-28
  GI50: 5.86 µM
SK-MEL-2
  GI50: 3.23 µM
M14
  GI50: 3.88 µM
LOX IMVI
  GI50: 2.24 µM
U-251
  GI50: 2.67 µM
[14]
  GI50: 3.16 µM
